Marks after values point to notes of the source that are not given here.
Assays:
[1] = test system: sternomandibularis beef muscles; experiment: pH of pre-rigor injected sectioned muscle; details: injection 10% of muscle weight, 200 mM (glucose, calcium chloride 300 mM)
Description: (§1) Pre-rigor beef muscle was sectioned and the sections were injected at approximately 1 hour post-mortem with a volume of treatment solution equal to 10% of the muscle weight. Objective color measurements were taken on pieces of each muscle section and the pieces were then frozen, powdered and stored at −80° C. for up to 10 days before testing pH and analyzing oxidation-reduction potential. Shear force was evaluated as described immediately above. Solutions used in this procedure were as follows: sodium citrate (200 mM), sodium acetate (200 mM), glucose (300 mM), calcium citrate (200 mM), calcium chloride (300 mM), injection with water, and no injection (control). The calcium citrate solution was prepared as a suspension using 0.25% carrageenan and 200 mM calcium citrate due to its insolubility in water. However, use of calcium citrate can be optimized by increasing solubility by means known in the art.

[2] = test system: sternomandibularis beef muscles; experiment: Shear force of pre-rigor injected sectioned muscle; details: 200 mM (glucose, calcium chloride 300 mM)
Description: Pre-rigor beef muscle was sectioned into 100 g. samples at approximately 3 hours post-mortem. The pieces were injected with 10 mL of treatment solution followed by marination in the solution for 24 hours at 2° C. before testing pH and recording visual color of the muscle sections. For evaluation of shear force, samples were thawed, cooked, sliced (approximately 6 mm by 6 mm) and then cooled before readings were taken. The solutions used for this procedure were as described above for homogenized muscle.
as §1

[3] = test system: semimembranosus beef muscles; experiment: Muscle pH, pre-rigor injection of whole muscle
Description: (§2) Experiment were conducted to test the effects of pre-rigor injection of several compounds. Effects of these compounds on pH, color, tenderness and other related traits of low-value beef cuts were investigated. Ten steers (22 to 24 mo of age, 515 to 676 kg live weight) were slaughtered according to current industry procedures. Pre-rigor semimembranosus (from the round), triceps brachii and supraspinatus muscles (from the chuck) were excised, after evisceration (approximately 1 hour post-mortem), from both sides of the carcass. Muscle sections were randomly assigned to the treatments: sodium citrate (NaC; 200 mM), sodium fluoride (NaF; 200 mM), sodium acetate (NaA; 200 mM), and calcium chloride (CaCl2; 300 mM). The control samples remained on the carcass at 2° C. for 24 hours to simulate commercial conditions. Following a cooling, control muscles were removed from each carcass (4 replicates), vacuum packaged and transferred to the holding cooler with the other cuts at 2° C. Calcium chloride treatment was included to be compared with the other treatments.
(§3) At 2 hours post-mortem, each muscle was injected with a volume equal to 8% of the muscle weight using a four-needle hand injector. The temperature of solutions were 4° C. Each muscle was individually treated (2% of solution was added to give a total of 10% of muscle weight) and tumbled in a 75-pound capacity tumbler (Röschermatic, Oshabrück, Germany) for 30 min to insure uniform distribution of the solution.
(§4) Samples of each muscle (approximately 100 g) were taken at 0 hour (before injection), 24, and 72 hours after injection for determination of pH, oxidation-reduction potential, glycogen content, R-values, NAD, and NADH. The samples were then immediately frozen in liquid nitrogen and stored at −80° C. until they were powdered and analyzed. Fresh muscle samples (approximately 20 g) were taken at 72 hours after injection and assayed immediately for water holding capacity and sarcomere length.
(§5) Duplicate pre-rigor samples (5 g) were weighed from powdered sample and homogenized (Polytron, Brinkman Instruments, New York, N.Y.) in 50 mL of 5 mM iodoacetic acid, 150 mM potassium chloride (pH 7.0, 24° C.) to stop glycolysis (Ahn et al., 1992). The pH of the suspension was measured with a general purpose electrode (Corning Glass Works, Corning, N.Y.) attached to an Orion Model SA 720 pH meter (Orion Research, Inc., Boston, Mass.). Post-rigor muscle pH was determined by homogenizing 5 g of sample in 50 mL of deionized water (Winger et al., 1979).

[4] = test system: supraspinatus beef muscles; experiment: Muscle pH, pre-rigor injection of whole muscle
Description: as §2, §3, §4, §5

[5] = test system: triceps brachii beef muscles; experiment: Muscle pH, pre-rigor injection of whole muscle; details: 200 mM, calcium chloride 300 mM
Description: as §2, §3, §4, §5

[6] = test system: semimembranosus beef muscles; experiment: Glycogen content, pre-rigor injection of whole muscle
Description: as §2, §3, §4
(§6) Glycogen extraction was performed in duplicate with 3 g of frozen-powdered muscle sample, which was homogenized with 0.6 N perchloric acid. Amylo-α-1,4-α-1,6- glucosidase from Aspergillus niger (No. A3514. Sigma Chemical, St. Louis, Mo.) was used for the breakdown of the glycogen molecules to free glucose following the method described by Roehrig and Allred (1974). Homogenate was incubated for 2 hours at 37° C., then 100 μL of 3 N perchloric acid was added to precipitate the proteins. After centrifugation, the supernatant was stored at 0-4° C., until analyzed, which was within 2 weeks.
(§7) The assay for glucose was run as described by Dalrymple and Hamm (1973) and Roehrig and Allred (1974), using glucose-6-phosphate dehydrogenase (No. G8878. Sigma Chemical, St. Louis, Mo.) and hexokinase (No. H5500. Sigma Chemical, St. Louis, Mo.). Briefly, the method involves an exoglucosidase, Amylogucosidase, from Aspergillus niger which hydrolyses the -α-D-(1-4) and -α-D-(1-6)-linkages of glycogen. The glucose formed is specifically determined with hexokinase and glucose-6-phosphate dehydrogenase. The glucose liberated after hydrolysis of glycogen is proportional to the increase of absorbance measured at 340 nm. Fifty μL of sample was incubated with 1 mL ATP, NADP, Glucose-6-phosphate dehydrogenase buffer and 5 μL hexokinase at 37° C. for 15 min. Absorbance was measured at 340 nm wavelength, light path=1 cm. The muscle glycogen content was calculated with the following formula: Glycogen (μmol glucose/g wet muscle weight)=111.882×absorbance. 111.882 is the dilution factor.

[7] = test system: supraspinatus beef muscles; experiment: as above
Description: as §2, §3, §4, §6, §7

[8] = test system: triceps brachii beef muscles; experiment: as above; details: 200 mM, calcium chloride 300 mM
Description: as §2, §3, §4, §6, §7

[9] = test system: semimembranosus beef muscles; experiment: Warner-Bratzler shear force, pre-rigor injection of whole muscle; details: 200 mM, calcium chloride 300 mM
Description: as §2, §3
(§8) Tenderness of samples was evaluated by measuring Warner-Bratzler shear force. Steaks (2.54-cm thick) from the middle of each muscle were cut and frozen at 3, 7 and 14 days postmortem. Frozen steaks (2.54 cm thick) were thawed at 4° C. for 24 hours and cooked on Farberware Open Hearth Broilers (Model 350A Walter Kidde, Bronx, N.Y.) to an internal temperature of 40° C., turned, and cooked to a final internal temperature of 70° C. (AMSA, 1995). Temperature was monitored using an OMEGA thermocouple thermometer type T (Omega Engineering, Inc., Stamford, Conn.) inserted into the geometric center of a steak. The cooked steaks were chilled 2 hours at 2° C., and then 8 cores (1.27-cm diameter) were removed parallel to the muscle fiber orientation. Cores were sheared once each on an Instron Universal Testing Machine model 55R1123 (Instron, Canton, Mass.) with a Warner-Braztler attachment. The Instron was set up with a 500 kg load cell, full scale load=1 (0-10 kg), and crosshead speed=250 mm/mim.

[10] = test system: supraspinatus beef muscles; experiment: as above; details: 200 mM, calcium chloride 300 mM; for Shear force, 7 d: 7 d postmortem
Description: as §2, §3, §8

[11] = test system: triceps brachii beef muscles; experiment: as above; details: 200 mM, calcium chloride 300 mM
Description: as §2, §3, §8

[12] = 24 h, 200 mM, calcium chloride 300 mM
[13] = 72 h, 200 mM, calcium chloride 300 mM

CC(=O)[O-].[Na+] [Sodium acetate, sodium acetate]
PH (0 h) ([1]; 0 h): 6.86 | pH, 72 h ([1]; 72 h): 5.80^cd | Shear force, kg (72 h) [2]: 9.88^ab kg | pH, 0 h ([3]; 0 h (before injection)): 6.75 | pH, 24 h [3, 12]: 5.70^b | pH, 72 h [3, 13]: 5.38^d | pH, 0 h ([4]; 0 h (before injection)): 6.81 | pH, 24 h [4, 12]: 5.85^c | pH, 72 h [4, 13]: 5.64^c | pH, 0 h ([5]; 0 h (before injection)): 6.78 | pH, 24 h ([5]; 24 h after injection): 5.80^b | pH, 72 h ([5]; 72 h after injection): 5.48^c | Glycogen, 0 h ([6]; 0 h (before injection)): 64.24 μmol/g muscle | Glycogen, 24 h [6, 12]: 40.88^b μmol/g muscle | Glycogen, 72 h [6, 13]: 28.64^b μmol/g muscle | Glycogen, 0 h ([7]; 0 h (before injection)): 42.83 μmol/g muscle | Glycogen, 24 h [7, 12]: 24.43 μmol/g muscle | Glycogen, 72 h [7, 13]: 18.10^b μmol/g muscle | Glycogen, 0 h ([8]; 0 h (before injection)): 49.53 μmol/g muscle | Glycogen, 24 h ([8]; 24 h): 28.74^b μmol/g muscle | Glycogen, 72 h ([8]; 72 h): 27.22^b μmol/g muscle | Shear force, 3 d ([9]; 3 d postmortem): 6.61 kg | Shear force, 7 d ([9]; 7 d postmortem): 5.78 kg | Shear force, 14 d ([9]; 14 d postmortem): 5.08 kg | Shear force, 3 d ([10]; 3 d postmortem): 7.85^a kg | Shear force, 7 d [10]: 6.95^a kg | Shear force, 7 d ([10]; listed as NaA): significant increase in shear force | Shear force, 3 d ([11]; 3 d postmortem): 6.47^a kg | Shear force, 7 d ([11]; 7 d postmortem): 5.96^a kg | Shear force, 14 d ([11]; 14 d postmortem): 4.67 kg

From patent US20020054941A1, “Methods and compositions to enhance tenderness and value of meat” (The Board of Regents of the University of Nebraska, priority 2000, published 2002)
